Measurements published in US20120027741A1 (priority 2009, published 2012).
Where two headings read alike, the source gives them in different places.

What was measured:
Assay type in all cases: in vivo
Phytophthora infestans = test: whole plant or invertebrate; details: Phytophthora infestans, 72 h, tomatoes, 3 days after inoculation; for pest or weed control at 0.4 ppm: 0.4 ppm a.i.; for pest or weed control at 0.125 ppm: 0.125 ppm a.i.; for pest or weed control at 0.5 ppm: 0.5 ppm a.i.
Sphaerotheca fuliginea = test: Sphaerotheca test (cucumbers)/protective; details: Podosphaera fuliginea, 168 h, 7 days after inoculation, read-out: Efficacy in % found
Protocol: Sphaerotheca Test (Cucumbers)/Protective
(§1) Solvent: • 24,5 parts by weight of acetone • 24,5 parts by weight of dimethylacetamide
(§2) Emulsifier: • 1 part by weight of alkylaryl polyglycol ether
(§3) To produce a suitable preparation of active compound, 1 part by weight of active compound is mixed with the stated amounts of solvent and emulsifier, and the concentrate is diluted with water to the desired concentration.
To test for protect activity, young plants are sprayed with the preparation of active compound at the stated rate of application. After the spray coating has dried on, the plants are inoculated with to an aqueous spore suspension of Sphaerotheca fuliginea. The plants are then placed in a greenhouse at approximately 23° C. and a relative atmospheric humidity of approximately 70%.
The test is evaluated 7 days after the inoculation. 0% means an efficacy which corresponds to that of the control, while an efficacy of 100% means that no disease is observed.

Botrytis cinerea = test: Botrytis test (beans)/protective; details: 48 h, 2 days after inoculation, read-out: Efficacy in % found
Protocol: Botrytis Test (Beans)/Protective
as §1, §2, §3
To test for protective activity, young plants are sprayed with the preparation of active compound. After the spray coating has dried on, 2 small pieces of agar covered with growth of Botrytis cinerea are placed on each leaf. The inoculated plants are placed in a darkened chamber at 20° C. and a relative atmospheric humidity of 100%.
2 days after the inoculation, the size of the lesions on the leaves is evaluated. 0% means an efficacy which corresponds to that of the control, while an efficacy of 100% means that no disease is observed.

Pythium ultimum = test: Pythium test (cotton)/seed treatment; details: Table 11, 0.1 g a.i./dt, emerged seedlings after 7 days
Protocol: Pythium Test (Cotton)/Seed Treatment
The test is performed under greenhouse conditions.
Cotton seeds, treated with the active compound or compound combinations, solved in N-methyl-2-pyrrolidon and diluted with water to the desired dosages, were sown in 6*6 cm pots containing 4 cm of a 1:1 mix of steamed field soil and sand.
Perlite was incubated with mycelium fragments of Pythium ultimum. 1 ml of infected perlite was scattered between the treated cotton seeds. Seeds were then covered by light expanded clay aggregate. Pots were incubated in the greenhouse 7 days at 20° C. and 80% relative humidity.
Assessment consisted of counting of emerged seedlings. 0% means an efficacy which to corresponds to that of the control, while an efficacy of 100% means that all seedlings have emerged.

[1] = read-out: Efficacy in % found, Table 3

Compound `C#CCCOC(=O)Nc1cccc(CO/N=C(/c2ccccc2)c2nnnn2C)n1` [Ex. A, but-3-yn-1-yl {6-[({[(Z)-(1-methyl-1H-tetrazol-5-yl)(phenyl)methylene]amino}oxy)methyl]pyridin-2-yl}carbamate] has a pest or weed control at 0.1 ppm (Phytophthora infestans; read-out: Efficacy in % found, Table 1, 0.1 ppm a.i.) of 7%, a pest or weed control at 0.2 ppm (Phytophthora infestans; read-out: Efficacy in % found, Table 1, 0.2 ppm a.i.) of 23% and a pest or weed control at 0.4 ppm (Phytophthora infestans; read-out: Efficacy in % found, Table 1) of 16%. The pest or weed control at 0.125 ppm (Phytophthora infestans; read-out: Efficacy in % found, Table 2) was 20%, the pest or weed control at 0.125 ppm (Phytophthora infestans; [1]) was 35% and the pest or weed control at 0.5 ppm (Phytophthora infestans; [1]) was 74%. The pest or weed control at 0.4 ppm (Phytophthora infestans; read-out: Efficacy in % found, Table 4) was 55%, the pest or weed control at 0.5 ppm (Phytophthora infestans; read-out: Efficacy in % found, Table 5) was 70% and the pest or weed control at 0.125 ppm (Phytophthora infestans; read-out: Efficacy in % found, Table 6) was 58%. For the same compound, the pest or weed control at 25 ppm (Sphaerotheca fuliginea; Table 7, 25 ppm a.i.) was 13%, the pest or weed control at 50 ppm (Sphaerotheca fuliginea; Table 7, 50 ppm a.i.) was 13% and the pest or weed control at 100 ppm (Sphaerotheca fuliginea; Table 7, 100 ppm a.i.) was 13%. The pest or weed control at 100 ppm (Sphaerotheca fuliginea; Table 8, 100 ppm a.i.) was 0%, the pest or weed control at 25 ppm (Botrytis cinerea; Table 9, 25 ppm a.i.) was 15% and the pest or weed control at 50 ppm (Botrytis cinerea; Table 9, 50 ppm a.i.) was 40%. The pest or weed control at 50 ppm (Botrytis cinerea; Table 10, 50 ppm a.i.) was 0% and the “Efficacy in % found” value (Pythium ultimum) was 30%.
